Target: purified NANOLUC® Luciferase (Oplophorus gracilirostris, UniProt Q9GV45, A31E/A60N/A81I/F95D/I117V/K70R/L54V/L99Q/M102K/N193R/P142E/Q151K/Q38R/Q45L/V71I/Y165I)
Format: biochemical
Conditions: relative value, furimazine set to 1; purified NanoLuc; initial light output three minutes after substrate addition
Experimental: Each compound to be screened was dissolved in DMSO (5 mM) and then further diluted to 100 uM in NANO-GLO® Luciferase Assay Buffer. Each diluted substrate was then combined in equal volumes with purified NANOLUC® Luciferase diluted into CO2 independent media+10% FBS. Initial light output for each substrate was measured in a GloMax®-Multi+ luminometer three minutes after substrate addition and then at five minute intervals as a means to determine signal half-life. […] Km was calculated using GraphPad Prism using non linear Michaelis-Menten regression.

Chain of purified NANOLUC® Luciferase (Q9GV45 28-196 with tags or gaps with the stated changes limits assumed): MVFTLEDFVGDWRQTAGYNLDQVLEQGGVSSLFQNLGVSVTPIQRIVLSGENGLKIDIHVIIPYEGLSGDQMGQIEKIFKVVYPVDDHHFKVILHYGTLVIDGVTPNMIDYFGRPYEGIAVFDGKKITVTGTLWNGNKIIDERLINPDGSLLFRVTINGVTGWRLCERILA

| SMILES | RLU at 100 uM |
| --- | --- |
| O=C(O)CCCCCCCOc1cccc(Cc2nc3c(Cc4ccccc4)[nH]c(-c4ccccc4)cn-3c2=O)c1 [JRW-0722, 8-(3-((8-benzyl-3-oxo-6-phenyl-3,7-dihydroimidazo[1,2-a]pyrazin-2-yl)methyl)phenoxy)octanoic acid] | 0.023 |
| O=c1c(Cc2ccc(OCCCCCCCCCCS(=O)(=O)[O-])c(Cl)c2)nc2c(Cc3ccccc3)[nH]c(-c3ccccc3)cn1-2.[Na+] [JRW-0765, sodium 10-(4-((8-benzyl-3-oxo-6-phenyl-3,7-dihydroimidazo[1,2-a]pyrazin-2-yl)methyl)-2-chlorophenoxy)decane-1-sulfonate] | 0.011 |
| O=C(O)c1ccc(-c2cn3c(=O)c(Cc4ccco4)nc-3c(Cc3ccccc3)[nH]2)cc1 [JRW-0790, 4-(8-benzyl-2-(furan-2-ylmethyl)-3-oxo-3,7-dihydroimidazo[1,2-a]pyrazin-6-yl)benzoic acid] | 0.0029 |
| CC(C)(C)OC(=O)c1cccc(-c2cn3c(=O)c(Cc4ccco4)nc-3c(Cc3ccccc3)[nH]2)c1 [JRW-0755, tert-butyl 3-(8-benzyl-2-(furan-2-ylmethyl)-3-oxo-3,7-dihydroimidazo[1,2-a]pyrazin-6-yl)benzoate] | 0.000043 |
| O=c1c(Cc2ccc(OCCCCCCS(=O)(=O)O)c(Cl)c2)nc2c(Cc3ccccc3)[nH]c(-c3cccc(O)c3)cn1-2 [JRW-0805, 6-(4-((8-benzyl-6-(3-hydroxyphenyl)-3-oxo-3,7-dihydroimidazo[1,2-a]pyrazin-2-yl)methyl)-2-chlorophenoxy)hexane-1-sulfonic acid] | 0.17 |
| O=c1c(Cc2cc(F)c(OCCCCCCS(=O)(=O)[O-])c(F)c2)nc2c(Cc3ccccc3)[nH]c(-c3ccccc3)cn1-2.[Na+] [JRW-0771, sodium 6-(4-((8-benzyl-3-oxo-6-phenyl-3,7-dihydroimidazo[1,2-a]pyrazin-2-yl)methyl)-2,6-difluorophenoxy)hexane-1-sulfonate] | 0.15 |
| CC(C)(C)OC(=O)CCCCCOc1cccc(Cc2nc3c(Cc4ccccc4)[nH]c(-c4ccccc4)cn-3c2=O)c1 [JRW-0682, tert-butyl 6-(3-((8-benzyl-3-oxo-6-phenyl-3,7-dihydroimidazo[1,2-a]pyrazin-2-yl)methyl)phenoxy)hexanoate] | 0.0024 |
| O=c1c(Cc2cccc(OCCCS(=O)(=O)[O-])c2)nc2c(Cc3ccccc3)[nH]c(-c3ccccc3)cn1-2.[Na+] [JRW-0713, sodium 3-(3-((8-benzyl-3-oxo-6-phenyl-3,7-dihydroimidazo[1,2-a]pyrazin-2-yl)methyl)phenoxy)propane-1-sulfonate] | 0.00081 |
| CC(C)(C)OC(=O)CCCOc1cccc(Cc2nc3c(Cc4ccccc4)[nH]c(-c4ccccc4)cn-3c2=O)c1 [JRW-0714, tert-butyl 4-(3-((8-benzyl-3-oxo-6-phenyl-3,7-dihydroimidazo[1,2-a]pyrazin-2-yl)methyl)phenoxy)butanoate] | 0.0013 |
| O=C(O)CCCOc1cccc(Cc2nc3c(Cc4ccccc4)[nH]c(-c4ccccc4)cn-3c2=O)c1 [JRW-0716, 4-(3-((8-benzyl-3-oxo-6-phenyl-3,7-dihydroimidazo[1,2-a]pyrazin-2-yl)methyl)phenoxy)butanoic acid] | 0.0022 |
| CC(=O)N[C@@H](CC(=O)O)C(=O)N[C@@H](CC(=O)O)C(=O)N[C@@H](CC(=O)O)C(=O)NCCCCCCOc1ccc(Cc2nc3c(Cc4ccccc4)[nH]c(-c4ccccc4)cn-3c2=O)cc1F [JRW-0806, (S)-3-acetamido-4-(((S)-1-(((S)-1-((6-(4-((8-benzyl-3-oxo-6-phenyl-3,7-dihydroimidazo[1,2-a]pyrazin-2-yl)methyl)-2-fluorophenoxy)hexyl)amino)-3-carboxy-1-oxopropan-2-yl)amino)-3-carboxy-1-oxopropan-2-yl)amino)-4-oxobutanoic acid] | 0.021 |
| O=c1c(Cc2ccc(Cl)c(OCCCCCCS(=O)(=O)[O-])c2)nc2c(Cc3ccccc3)[nH]c(-c3ccccc3)cn1-2.[Na+] [JRW-0766, sodium 6-(5-((8-benzyl-3-oxo-6-phenyl-3,7-dihydroimidazo[1,2-a]pyrazin-2-yl)methyl)-2-chlorophenoxy)hexane-1-sulfonate] | 0.015 |
| O=c1c(Cc2ccc(OCCCCCCCCS(=O)(=O)[O-])c(Cl)c2)nc2c(Cc3ccccc3)[nH]c(-c3ccccc3)cn1-2.[Na+] [JRW-0761, sodium 8-(4-((8-benzyl-3-oxo-6-phenyl-3,7-dihydroimidazo[1,2-a]pyrazin-2-yl)methyl)-2-chlorophenoxy)octane-1-sulfonate] | 0.075 |
| O=c1c(Cc2cccc(OCCCCCCBr)c2)nc2c(Cc3ccccc3)[nH]c(-c3ccccc3)cn1-2 [JRW-0692, 8-benzyl-2-(3-((6-bromohexyl)oxy)benzyl)-6-phenylimidazo[1,2-a]pyrazin-3(7H)-one] | 0.0025 |
| CC(=O)N[C@@H](CC(=O)O)C(=O)N[C@@H](CC(=O)O)C(=O)N[C@@H](CC(=O)O)C(=O)NCCCCCCOc1cccc(Cc2nc3c(Cc4ccccc4)[nH]c(-c4ccccc4)cn-3c2=O)c1 [JRW-0741, (S)-3-acetamido-4-(((S)-1-(((S)-1-((6-(3-((8-benzyl-3-oxo-6-phenyl-3,7-dihydroimidazo[1,2-a]pyrazin-2-yl)methyl)phenoxy)hexyl)amino)-3-carboxy-1-oxopropan-2-yl)amino)-3-carboxy-1-oxopropan-2-yl)amino)-4-oxobutanoic acid] | 0.0057 |
| NCCCCCCOc1ccc(Cc2nc3c(Cc4ccccc4)[nH]c(-c4ccccc4)cn-3c2=O)cc1F [JRW-0801, 2-(4-((6-aminohexyl)oxy)-3-fluorobenzyl)-8-benzyl-6-phenylimidazo[1,2-a]pyrazin-3(7H)-one] | 0.0073 |
| CC(C)(C)OC(=O)CCCCCCCOc1cccc(Cc2nc3c(Cc4ccccc4)[nH]c(-c4ccccc4)cn-3c2=O)c1 [JRW-0719, tert-butyl 8-(3-((8-benzyl-3-oxo-6-phenyl-3,7-dihydroimidazo[1,2-a]pyrazin-2-yl)methyl)phenoxy)octanoate] | 0.0011 |
| O=c1c(Cc2ccc(OCCCCCCS(=O)(=O)OCC(Cl)(Cl)Cl)c(Cl)c2)nc2c(Cc3ccccc3)[nH]c(-c3ccccc3)cn1-2 [JRW-0665, 2,2,2-trichloroethyl 6-(4-((8-benzyl-3-oxo-6-phenyl-3,7-dihydroimidazo[1,2-a]pyrazin-2-yl)methyl)-2-chlorophenoxy)hexane-1-sulfonate] | 0.0055 |
| CC(C)(C)OC(=O)CCCCCOc1ccc(Cc2nc3c(Cc4ccccc4)[nH]c(-c4ccccc4)cn-3c2=O)cc1Cl [JRW-0725, tert-butyl 6-(4-((8-benzyl-3-oxo-6-phenyl-3,7-dihydroimidazo[1,2-a]pyrazin-2-yl)methyl)-2-chlorophenoxy)hexanoate] | 0.013 |

— patent US11192894B2, “Cell impermeable coelenterazine analogues” (PROMEGA CORPORATION, priority 2016, dated 2021)
